Measurements taken from patent US20080124310A1, “Bead based receptor biology” (priority 2006, published 2008).

What was measured:
Assay type in all cases: cell-based, murine
RAW 264.7 macrophages [1] = test: Phagocytic receptor assay: engulfment of IgG or ligand coated particles by RAW macrophages (foam cell model), confocal
Excerpt: FIG. 25, panels A and B, illustrate respectfully a method for measurement of phagocytic receptors and a method for measuring transfection or delivery of nucleic acids and simultaneous measurement of particle engulfment using a single cell multi label confocal microscope experiment. A direct or surrogate measurement of receptor function or receptor pathway activity must be made in order establish the role of potential therapeutic target proteins in receptor function. IgG, complement, low density lipoprotein (LDL), oxidatively modified LDL (OX-LDL). Acetyl-LDL, apolipoproteins, lipoproteins, lipopolysaccharide (LPS), scavenger and other receptor functions can be measured by the accumulation of particles. The particles may themselves be comprised in part of fluorescent materials or can be directly stained with fluorescent or other colored materials or can be bound by proteins that directly or indirectly permit the attachment of fluorescent, chemiluminescent or other reporter molecules. The beads may be stained in live cells or cells fixed with formalin or paraformaldehyde or organic solvents such as alcohol and acids or by other means. The beads can be stained both before or after internalization with or without the permeabilization of the cells by detergents or organic solvents. The beads may be cells that can be lysed and imaged directly. The cells may be counter stained for the presence of specific proteins using antibodies or may express fluorescent protein constructs or contain fluorescent silencing RNA or DNA constructs or biopolymer modulating agents or drugs (FIG. 25).
We created a foam cell model and quantitative confocal assays for micro particle engulfment by macrophages. The engulfment of particles by macrophages and the generation of free radicals by leukocytes are the key physiological actions that lead to the generation of foam cells that are the center of atherosclerotic plaques. We made a cellular model system of foam cells or activated leukocytes and examine the effects of moderate levels of alcohol over time on the accumulation of particles and generation of free radicals at the site of particle accumulation compared to statins and propranolol. The model systems will consist of RAW macrophages that engulf hydrophobic polystyrene microparticles with or without coating by ligands or mixtures of ligands such as those found in cellular growth media, or free fluorescently labeled DI-LDL, OX-LDL, Acetyl LDL or other. Live cell confocal microscopy was used to quantify the effects of ethanol, compared to lovastatin and propranolol, on particle engulfment.
External particles were stained green with secondary anti rabbit FITC and then cells were permeablized and all particles stained red with secondary anti rabbit CY3. Thus engulfed particles appear red while external particles appear yellow. Beads within the cells carrying only the red signal (engulfed) and not also the green signal {red+green=yellow} (outside) were quantified for accumulation assays using both total fluorescence in the green channel and by counting individual beads in three fields on three independent cover slips for each concentration.
(§1) RAW 264.7 macrophages were cultured in alpha MEM with 5% fetal calf serum as described. The effects of lovastatin on IgG and LDL coated micro-particle engulfment at 0, 50 nM, 100 nM, 500 nM, 1 mM and higher was tested. The accumulation of free DI-LDL was quantified directly by its red fluorescence. External particles were stained green with secondary anti rabbit FITC and then cells were permeablized and all particles stained red with secondary anti rabbit CY3. Thus engulfed particles appear red while external particles appear yellow.

RAW 264.7 macrophages [2] = test: Uptake of free fluorescent DI-LDL or OX-LDL, red fluorescence confocal microscopy; conditions: 594 nm
Experimental: as §1, with “yellow. Beads within the cells carrying only the red signal (engulfed) and not also the green signal {red+green=yellow} (outside) were quantified for accumulation assays using both total fluorescence in the green channel and by counting individual beads in three fields on three independent cover slips for each concentration.” for “yellow.”

Thrombospondin = test: Surface expression of thrombospondin on macrophages
Excerpt: Thrombospondin is a protein that is known to bind apolipoprotein and lipid receptors expressed on the surface of cells including the scavenger receptor class B multi ligand receptor CD36 associated with atherosclerosis and Alzheimer's.

RAW macrophages = test: Biochemical measurement of protein levels in fractions of drug treated RAW macrophages
Excerpt: A now well established side effect of ethanol is to prevent heart attack. Thus the common effects of statins, propranolol, and ethanol must be closely linked to the central mechanism that is the most important pharmacological target of heart attack and thus atherosclerosis prevention. It remains possible that the preventative effect of statins results from their effect to inhibit particle engulfment and foam cell formation by macrophages leading to atherosclerotic plaques. We created a foam cell model and quantitative confocal assays for micro particle engulfment by macrophages. The engulfment of particles by macrophages and the generation of free radicals by leukocytes are the key physiological actions that lead to the generation of foam cells that are the center of atherosclerotic plaques. We have made a cellular model system of leukocytes or activated leukocytes or leukocytes treated over time to examine the effects drugs and biopolymer modification materials over time on the activation of receptors at the site of modified or ligand coated particles. The drugs used in this system to examine the kinetics of receptor function at modified particles may result in changes to the cell including changes in gene expression at the level of DNA transcription, RNA production, accumulation or post-transcription processing, mRNA production accumulation or expression all of which may also alter protein expression. We examined the use of these model systems with and without beads as a system to screen the effects of drugs that are known to prevent heart attack and stroke in model of leukocyte cells within atherosclerotic plaques. We observe that drugs that effect receptor associated signaling may also alter gene, RNA or ultimately protein expression in cells resulting in changes in protein levels. Proteins that change levels in response to a drug may be themselves drug target proteins.
The drugs used in the leukocyte model system to examine the kinetics of receptor function at modified particles may result in changes to the cell including changes in gene expression at the level of DNA transcription, RNA production, accumulation or post-transcription processing, mRNA production accumulation or expression all of which may also alter protein expression. We examined the use of these model systems with and without beads as a system to screen the effects of drugs that are known to effect receptor response at or near the cell surface or interior of the cells. We observe that drugs that effect receptor associated signaling may also alter gene, RNA or ultimately protein expression in cells resulting in changes in protein levels. Proteins that change levels in response to a drug may be themselves drug target proteins. […] The RAW leukocyte model foam cells system alone or in combination with the bead based biology system can be used to characterize the effects of receptor or cellular activation in terms of second messengers such as lipid and protein phosphorylation with respect to drug treatment or time in the cytosol of leukocytes (FIG. 67).

In the case of CC[C@H](C)C(=O)O[C@H]1C[C@@H](C)C=C2C=C[C@H](C)[C@H](CC[C@@H]3C[C@@H](O)CC(=O)O3)[C@H]21 [lovastatin], the “engulfment / accumulation of IgG or ligand coated particles” value (RAW 264.7 macrophages [1]; RAW macrophages, confocal) is reported as “reduced the capacity of RAW macrophages to engulf particles”, the “dose that directly prevents engulfment of particles” value (RAW 264.7 macrophages [1]; cultured macrophage leukocytes) is reported as ≤ 100 nM and the “accumulation of free cholesterol (free fluorescent DI-LDL or OX-LDL)” value (RAW 264.7 macrophages [2]) is reported as “no effect”. The “expression of Thrombospondin on the cell surface” value (Thrombospondin) was “lowered the expression of Thrombospondin”, the “levels of cytosolic proteins (FIG. 57)” value (RAW macrophages; cytosol fraction) was “alter levels of proteins in the membranes” and the “levels of proteins in the extracellular matrix (FIG. 55)” value (RAW macrophages; matrix fraction) was “alter levels of proteins in the extracellular matrix”. The “levels of proteins in the membranes (FIG. 54)” value (RAW macrophages; membrane fraction) was “alter levels of proteins in the membranes” and the “levels of proteins in the secretions (FIG. 56)” value (RAW macrophages; secreted proteins) was “alter levels of proteins in the secretions”.
